Where two headings read alike, the source gives them in different places.
Assays:
plasma protein = conditions: cited from earlier work; for fp_Human (free fraction in plasma): human, collected value, median if multiple values were reported, ref: Table S1
[1] = human, cited from earlier work
[2] = human
[3] = cited from earlier work
[4] = intravenous, median if multiple values were reported, ref numbers in Table S1
[5] = human, intravenous, median if multiple values were reported, ref numbers in Table S1
[6] = intravenous, median if multiple values reported, Reference of Table S1

SMILES | in vivo Vd_(L/kg)_Human [1, 4] [L/kg] | in vivo CL_(L/hr/kg)_Human [3, 5] [L/h/kg] | also measured
CC(=O)Nc1ccc(O)cc1 [Acetaminophen] | 1.000 |  | fp_Human (free fraction in plasma) (plasma protein): 0.710
CN(C)Cc1nnc2n1-c1ccc(Cl)cc1C(c1ccccc1)=NC2 [Adinazolam] |  | 0.372 | in vivo MRT_(hr)_Human [2]: 2.634 h; in vivo Vd_(L/kg)_Human ([1]; in vivo, iv): 0.980 L/kg
Oc1ncnc2[nH]ncc12 [Allopurinol] | 0.580 |  | 
Cc1nnc2n1-c1ccc(Cl)cc1C(c1ccccc1)=NC2 [Alprazolam] | 0.800 | 0.044 | 
C=CCc1ccccc1OCC(O)CNC(C)C (stereo not shown) [Alprenolol] | 3.200 | 0.900 | 
CCCCc1oc2ccccc2c1C(=O)c1cc(I)c(OCCN(CC)CC)c(I)c1 [Amiodarone] |  | 0.114 | 
CN(C)CCC=C1c2ccccc2CCc2ccccc21 [Amitriptyline] | 8.700 | 0.593 | 
CC1(C)S[C@@H]2[C@H](NC(=O)[C@H](N)c3ccc(O)cc3)C(=O)N2[C@H]1C(=O)O [Amoxicillin] | 0.250 | 0.198 | 
C[C@@H](O[C@H]1OCCN(Cc2n[nH]c(=O)[nH]2)[C@H]1c1ccc(F)cc1)c1cc(C(F)(F)F)cc(C(F)(F)F)c1 [Aprepitant] | 0.940 |  | 
CC(C)NCC(O)COc1ccc(CC(N)=O)cc1 (stereo not shown) [Atenolol] |  | 0.150 | 
C[C@H]1C[C@H]2[C@@H]3CCC4=CC(=O)C=C[C@]4(C)[C@@]3(F)[C@@H](O)C[C@]2(C)[C@@]1(O)C(=O)CO [Betamethasone] |  | 0.168 | 
OC(CCN1CCCCC1)(c1ccccc1)C1CC2C=CC1C2 (stereo not shown) [Biperiden] | 9.100 |  | in vivo MRT_(hr)_Human [2]: 12.639 h
CC(C)NCC(O)COc1ccc(COCCOC(C)C)cc1 (stereo not shown) [Bisoprolol] | 2.400 | 0.222 | fp_Human (free fraction in plasma) (plasma protein): 0.830
CCCC1O[C@@H]2C[C@H]3[C@@H]4CCC5=CC(=O)C=C[C@]5(C)[C@H]4[C@@H](O)C[C@]3(C)[C@]2(C(=O)CO)O1 (stereo partly shown) [Budesonide] | 3.900 | 1.200 | 
COc1ccccc1OCCNCC(O)COc1cccc2[nH]c3ccccc3c12 (stereo not shown) [Carvedilol] | 1.300 | 0.495 | 
C=CC1=C(C(=O)O)N2C(=O)[C@@H](NC(=O)/C(=N\OCC(=O)O)c3csc(N)n3)[C@H]2SC1 [Cefixime] | 0.240 | 0.060 | 
CCC[C@@H]1C[C@@H](C(=O)N[C@@H]([C@H]2O[C@H](SC)[C@H](O)[C@@H](O)[C@H]2O)[C@H](C)Cl)N(C)C1 [Clindamycin] |  | 0.270 | 
CN1CCN(C2=Nc3cc(Cl)ccc3Nc3ccccc32)CC1 [Clozapine] | 1.600 |  | in vivo MRT_(hr)_Human [2]: 10.667 h
CNCCCN1c2ccccc2CCc2ccccc21 [Desipramine] | 15.000 |  | in vivo MRT_(hr)_Human [2]: 22.727 h
C[C@@H]1C[C@H]2[C@@H]3CCC4=CC(=O)C=C[C@]4(C)[C@@]3(F)[C@@H](O)C[C@]2(C)[C@@]1(O)C(=O)CO [Dexamethasone] |  | 0.198 | 

SMILES | in vivo Vd_(L/kg)_Human [1, 4] [L/kg] | in vivo CL_(L/hr/kg)_Human [3, 5] [L/h/kg] | also measured
CN1C(=O)CN=C(c2ccccc2)c2cc(Cl)ccc21 [Diazepam] |  | 0.023 | 
O=c1[nH]cnc2c1ncn2[C@H]1CC[C@@H](CO)O1 [Didanosine] |  | 0.660 | in vivo MRT_(hr)_Human [2]: 1.197 h
COc1cc2nc(N3CCN(C(=O)C4COc5ccccc5O4)CC3)nc(N)c2cc1OC (stereo not shown) [Doxazosin] | 1.300 |  | in vivo MRT_(hr)_Human [2]: 13.542 h
CCN(CC)C(=O)/C(C#N)=C/c1cc(O)c(O)c([N+](=O)[O-])c1 [Entacapone] | 0.270 | 0.720 | 
CC[C@H]1OC(=O)[C@H](C)[C@@H](O[C@H]2C[C@@](C)(OC)[C@@H](O)[C@H](C)O2)[C@H](C)[C@@H](O[C@@H]2O[C@H](C)C[C@H](N(C)C)[C@H]2O)[C@](C)(O)C[C@@H](C)C(=O)[C@H](C)[C@@H](O)[C@]1(C)O [Erythromycin] |  |  | fp_Human (free fraction in plasma) (plasma protein): 0.220
CC(C)(C)NC(=O)[C@H]1CC[C@H]2[C@@H]3CC[C@H]4NC(=O)C=C[C@]4(C)[C@H]3CC[C@]12C [Finasteride] | 1.100 |  | in vivo MRT_(hr)_Human [2]: 7.639 h
O=C(NCC1CCCCN1)c1cc(OCC(F)(F)F)ccc1OCC(F)(F)F (stereo not shown) [Flecainide] | 6.100 |  | in vivo MRT_(hr)_Human [2]: 20.748 h
CCOC(=O)c1ncn2c1CN(C)C(=O)c1cc(F)ccc1-2 [Flumazenil] |  | 0.960 | 
CC1(C)O[C@@H]2C[C@H]3[C@@H]4C[C@H](F)C5=CC(=O)C=C[C@]5(C)[C@H]4[C@@H](O)C[C@]3(C)[C@]2(C(=O)CO)O1 [Flunisolide] |  | 0.720 | in vivo MRT_(hr)_Human [2]: 2.500 h
O=c1[nH]cc(F)c(=O)[nH]1 [Fluorouracil] |  |  | fp_Human (free fraction in plasma) (plasma protein): 0.770
CC(C)n1c(/C=C/C(O)CC(O)CC(=O)O)c(-c2ccc(F)cc2)c2ccccc21 (stereo not shown) [Fluvastatin] | 0.420 |  | in vivo MRT_(hr)_Human [2]: 0.438 h
O=C(O)P(=O)(O)O [Foscarnet] | 0.500 | 0.126 | 
NS(=O)(=O)c1cc(C(=O)O)c(NCc2ccco2)cc1Cl [Furosemide] |  | 0.096 | 
O=C(/C=C/c1c(C(=O)O)[nH]c2cc(Cl)cc(Cl)c12)Nc1ccccc1 [Gavestinel] |  |  | fp_Human (plasma protein): 0.002
CCC1=C(C)CN(C(=O)NCCc2ccc(S(=O)(=O)NC(=O)N[C@H]3CC[C@H](C)CC3)cc2)C1=O [Glimepiride] | 0.190 | 0.034 | fp_Human (free fraction in plasma) (plasma protein): 0.028
CC#CCC(C)[C@H](O)/C=C/[C@@H]1[C@H]2C/C(=C/CCCC(=O)O)C[C@H]2C[C@H]1O (stereo partly shown) [Iloprost] | 0.385 | 0.960 | fp_Human (free fraction in plasma) (plasma protein): 0.400
CN(C)CCCN1c2ccccc2CCc2ccccc21 [Imipramine] | 12.000 |  | 
CCC(C)n1ncn(-c2ccc(N3CCN(c4ccc(OCC5COC(Cn6cncn6)(c6ccc(Cl)cc6Cl)O5)cc4)CC3)cc2)c1=O (stereo not shown) [Itraconazole] | 7.400 | 0.306 | 
CC(CCc1ccccc1)NCC(O)c1ccc(O)c(C(N)=O)c1 (stereo not shown) [Labetalol] |  | 1.380 | fp_Human (free fraction in plasma) (plasma protein): 0.500
Cc1c(OCC(F)(F)F)ccnc1C[S+]([O-])c1nc2ccccc2[nH]1 (stereo not shown) [Lansoprazole] | 0.280 | 0.319 | 

SMILES | in vivo Vd_(L/kg)_Human [1, 4] [L/kg] | in vivo CL_(L/hr/kg)_Human [3, 5] [L/h/kg] | also measured
CCN(CC)CC(=O)Nc1c(C)cccc1C [Lidocaine] |  | 0.756 | 
CC[C@H](C)C(=O)O[C@H]1C[C@@H](C)C=C2C=C[C@H](C)[C@H](CC[C@@H]3C[C@@H](O)CC(=O)O3)[C@H]21 [Lovastatin] | 0.870 | 0.432 | 
CN(c1nc2ccccc2s1)C1CCN(C[C@H](O)COc2ccc(F)c(F)c2)CC1 [Lubeluzole] |  | 0.102 | fp_Human (free fraction in plasma) (plasma protein): 0.003
CN1CC[C@]23c4c5ccc(O)c4O[C@H]2[C@@H](O)C=C[C@H]3[C@H]1C5 [Morphine] |  | 1.500 | 
C=CCN1CC[C@]23c4c5ccc(O)c4O[C@H]2C(=O)CC[C@@]3(O)[C@H]1C5 [Naloxone] | 1.700 |  | 
COc1ccc2cc([C@H](C)C(=O)O)ccc2c1 [Naproxen] |  | 0.004 | 
Cc1ccnc2c1NC(=O)c1cccnc1N2C1CC1 [Nevirapine] | 1.300 | 0.018 | 
COCCOC(=O)C1=C(C)NC(C)=C(C(=O)OC(C)C)C1c1cccc([N+](=O)[O-])c1 (stereo not shown) [Nimodipine] | 1.000 |  | in vivo MRT_(hr)_Human [2]: 1.111 h
COc1ccc2[nH]c([S+]([O-])Cc3ncc(C)c(OC)c3C)nc2c1 (stereo not shown) [Omeprazole] | 0.240 | 0.504 | 
O=C1Nc2ccc(Cl)cc2C(c2ccccc2)=NC1O (stereo not shown) [Oxazepam] |  |  | in vivo CL_(L/hr/kg)_Human ([3]; in vivo, iv): 0.066 L/h/kg
COc1ccc2c3c1O[C@H]1C(=O)CC[C@@]4(O)[C@@H](C2)N(C)CC[C@]314 [Oxycodone] |  | 0.366 | fp_Human (free fraction in plasma) (plasma protein): 0.550
CCN1CCN(C(=O)N[C@@H](C(=O)N[C@@H]2C(=O)N3[C@@H]2SC(C)(C)[C@@H]3C(=O)O)c2ccccc2)C(=O)C1=O [Piperacillin] |  |  | in vivo MRT_(hr)_Human [2]: 1.125 h; in vivo Vd_(L/kg)_Human [1, 6]: 0.270 L/kg
CCN(CC)CCNC(=O)c1ccc(N)cc1 [Procainamide] |  |  | fp_Human (plasma protein): 0.840
O=C(c1ccc(OCCN2CCCCC2)cc1)c1c(-c2ccc(O)cc2)sc2cc(O)ccc12 [Raloxifene] |  |  | in vivo MRT_(hr)_Human [2]: 41.837 h; in vivo Vd_(L/kg)_Human [1, 6]: 36.900 L/kg
Cc1nc2n(c(=O)c1CCN1CCC(c3noc4cc(F)ccc34)CC1)CCCC2 [Risperidone] |  |  | fp_Human (plasma protein; free fraction in human plasma, median if multiple values reported, Reference of Table S1): 0.100
CCCc1nn(C)c2c(=O)[nH]c(-c3cc(S(=O)(=O)N4CCN(C)CC4)ccc3OCC)nc12 [Sildenafil] |  |  | in vivo MRT_(hr)_Human [2]: 2.564 h; in vivo Vd_(L/kg)_Human [1, 6]: 1.400 L/kg
Cc1cc(NS(=O)(=O)c2ccc(N)cc2)no1 [Sulfamethoxazole] |  |  | in vivo CL_(L/hr/kg)_Human ([3]; human, intravenous, median if multiple values reported, Reference of Table S1): 0.020 L/h/kg
CCCCNC(=O)NS(=O)(=O)c1ccc(C)cc1 [Tolbutamide] |  |  | in vivo MRT_(hr)_Human [2]: 9.524 h; in vivo Vd_(L/kg)_Human [1, 6]: 0.120 L/kg
CCN(C(C)=O)c1cccc(-c2ccnc3c(C#N)cnn23)c1 [Zaleplon] |  |  | in vivo MRT_(hr)_Human [2]: 1.354 h; in vivo Vd_(L/kg)_Human ([1]; in vivo, iv): 1.300 L/kg

Source: publication PMC8342319, “Predicting blood-to-plasma concentration ratios of drugs from chemical structures and volumes of distribution in humans” (Molecular Diversity, 2021)
